{
  "source": "patent US9096538B2",
  "about": "“Pharmaceutical comprising PPAR agonist” (Senju Pharmaceutical Co., Ltd., priority 2005, dated 2015)",
  "key": {"[1]": {"test_system": "rabbit corneal epithelial cell", "experiment": "Test Example 2: increase in cell number, cultured rabbit corneal epithelial cell, 120 hours (Cell Counting Kit-8)", "format": "cell-based", "conditions": "no addition group = 100%, average ± standard deviation, N = 5", "method": "A male rabbit (Japanese white, weight: about 1.5 kg, […] LABES Co., Ltd.) was used. The experimental animal was used according to the International Guiding Principles for Biomedical Research Involving Animals.\nA rabbit corneal epithelial cell was prepared using the same process as that of (Test example 1).\nAs the test substance, the following compounds were used. • PPARδ agonist: L-165041 (Sigma-Aldrich) and GW-501516 (Alexis)\nFor studying the effect of promoting cell proliferation by each test substance, a culture medium prepared by removing a mouse-derived epithelial growth factor (mEGF) attached to RCGM2, from RCGM2, was used as a basal medium, while as a positive control for confirming the effect of promoting cell proliferation, a medium with an mEGF added thereto (basal medium+10 ng/mL mEGF) was used according to instructions of an RCGM2 preparation protocol.\nCollagen treatment of the culture dish was performed using the same process as that of (Test Example1).\nIn the test, a rabbit corneal epithelial cell which had been cultured to subconfluent in a culture dish having a diameter of 10 cm was used. After the culture medium was removed, the bottom of the culture dish was washed two times using D-PBS, to this was added 1 mL of trypsin-EDTA, this was incubated at 37° C. for 5 minutes and thereby, the cell was peeled from the bottom of the culture dish. After incubation, 9 mL of MEM containing 10% FBS was added to the culture dish to stop the enzymatic reaction, and this was subjected to centrifugation at room temperature and 1,500 rpm for 5 minutes to obtain a corneal epithelial cell layer. To the resulting cell was added an appropriate amount of RCGM2 to a cell concentration of 1×10^5 cells/mL to suspend the cell. Each 64 μL of this cell suspension was dispensed in each well at the cell number per bottom area (0.32 cm^2) of the collagen-treated 96-well culture dish for tissue culture of […]. […] After 24 hours from cell seeding, the culture medium was discarded, and each 100 μL of the following culture media were freshly dispensed into each well of the culture dish. • [1] Only basal medium (no addition group) • [2] Basal medium+mEGF (final concentration: 10 ng/mL; positive control group) • [3] Basal medium+L-165041 (final concentration: 0.1 μM and 1 μM) • [4] Basal medium+GW-501516 (final concentration: 0.01 μM and 0.1 μM)\nThe culture supernatant of each well was removed every 48 hours from exchange of the culture medium containing a test substance, and each 100 μL of the freshly prepared culture medium was dispensed into each well."}, "[2]": {"test_system": "normal human corneal epithelial cell", "experiment": "Test Example 5: increase in cell number, normal human corneal epithelial cell, 24 hours (Cell Counting Kit-8)", "format": "cell-based", "conditions": "no addition group = 100%, average ± standard deviation, N = 3 to 4", "method": "(§1) A normal human corneal epithelial cell (KURABO) was used.\nAs the test substance, the following compounds were used. PPARδ agonist: L-165041 (Sigma-Aldrich), GW-501516 (Alexis)\nIn addition, as a positive control for confirming the cell proliferation promoting effect, a medium in which a mouse-derived epithelial growth factor (mEGF) contained in an HCGS proliferation additive set (KURABO) was added to a basal medium (basal medium+1 ng/mL mEGF) was used.\nThis cell suspension was seeded on a fibronectin-coated multiwell plate (24 well, BECTON DICKINSON) so that the cell number became 2×10^4 cells/500 μL/well (since the bottom area is 2 cm^2, the number is 1×10^4 cells/cm^2).\nFurther, 24 hours thereafter, the culture medium was exchanged with each 400 μL of the following culture media. • [1] Only basal medium (no addition group) • [2] Basal medium+mEGF (final concentration: 1 ng/mL; positive control group) • [3] Basal medium+L-165041 (final concentration: 0.01 μM and 0.1 μM) • [4] Basal medium+GW-501516 (final concentration: 0.001 μM and 0.01 μM)"}, "[3]": {"test_system": "normal human corneal epithelial cell", "experiment": "Test Example 6: increase in cell number, normal human corneal epithelial cell, 48 hours (Cell Counting Kit-8)", "format": "cell-based", "conditions": "10^−8 M, no addition group = 100%, average ± standard deviation, N = 4 to 5", "method": "as §1\nAs the test substance, the following compounds were used. • PPARδ Agonist: GW-501516 (Alexis), GW-0742 (Sigma-Aldrich)\nOnly basal medium (no addition group) • [2] Basal medium+GW-501516 (final concentration: 0.01 μM) • [3] Basal medium+GW-0742 (final concentration: 0.01 μM)"}, "[4]": {"test_system": "monkey meibomian gland epithelial cell", "experiment": "Test Example 8: increase in number of monkey meibomian gland epithelial cells (Cell Counting Kit-8)", "format": "cell-based", "conditions": "3 x 48 hours; for Cell proliferation (%): no addition group = 100%, average ± standard deviation, N = 5", "source_text": "For studying the effect of promoting cell proliferation by each test substance, a culture medium prepared by removing the supplement attached to DK-SFM, from DK-SFM, was used as a basal medium, while as a positive control for confirming the cell proliferation promoting effect, a culture medium with the supplement added thereto (basal medium+supplement) was used according to instructions of an DK-SFM preparation protocol. […] In the test, a monkey meibomian gland epithelial cell which had been cultured to subconfluent, suspended in a cell banker (Nippon Zenyaku Kogyo Co., Ltd.), and cryopreserved in liquid nitrogen was used. The cell which had been cryopreserved was thawed, and transferred to a 50 mL centrifuge tube and a 10-fold amount of DK-SFM was added thereto. […] Each 64 μL of this cell suspension was dispensed into each well so that the cell number per bottom area (0.32 cm^2) of the collagen-treated 96-well culture dish for tissue culture became 4×10^4 cells/cm^2. […] After 48 hours from initial culture medium exchange, the culture medium was exchanged with a freshly prepared culture medium of each of [1] to [4]. Further, after 48 hours therefrom, the culture medium was exchanged again with a freshly prepared culture medium of each of [1] to [4]."}, "[5]": {"test_system": "corneal epithelial wound", "experiment": "Test Example 9: healing of corneal epithelial wound after corneal epithelium scraping, eyedrop", "format": "in vivo, rabbit", "conditions": "0.05% eyedrop; for ratio (%) of remaining corneal epithelial defect: initial value = 100%, average ± standard deviation, N = 4", "source_text": "A male rabbit (Japanese white, […] LABES Co., Ltd.) was used. The experimental animal was used according to the International Guiding Principles for Biomedical Research Involving Animals.\nAs the test substance, a PPARδ agonist GW-501516 (Alexis Biochemicals) was used. A solution in which GW-501516 was suspended in the following vehicle to 0.05% was used as an eyedrop solution.\nAs a control for the test substance administration group, the aforementioned vehicle administration group containing no drug was set.\nAfter the animal was subjected to systemic anesthesia by intramuscular injection (0.9 mL/kg) with a selactar (2% xylazine: Bayer): ketalar (5% ketamine: Sankyo)=0.5:1 mixed solution, an oxybuprocaine hydrochloride eyedrop solution (Benoxil eyedrop solution 0.4%; Santen Pharmaceutical Co., Ltd.) was administered, and eyeballs were exposed. A mark having a diameter of 6 mm was stamped on a corneal epithelium at a corneal central part using a trephine having a diameter of 6 mm, and a whole corneal epithelial layer within a stamped circumference was scraped using a handy rooter under a stereomicroscope. After scraping, a corneal surface was washed using physiological saline (Otsuka Pharmaceutical Factory Inc.), and eyeballs were returned into the orbit to complete the corneal epithelial scraping treatment.\nA test substance eyedrop solution or an eyedrop solution vehicle was administered to treated eyes at 50 μL per once using a micropipette two times a day on the corneal epithelium scraping day and, on the following day and thereafter, four times a day until completion of the test.\nAt the time point at which corneal epithelium scraping of both eyes of all individuals was completed was defined as the test initiation time (0 hour) and, by quantitating the corneal epithelial defect area at 24, 38 and 48 hours thereafter, restoration of a corneal epithelium was assessed. That is, at each time point, 10 μL of a 0.1% fluorescein sodium (Wako Pure Chemical Industries, Ltd.) solution was administered to treated eyes, a photograph of an anterior ocular segment of the animal was immediately taken using a slit lamp equipped with a cobalt filter and thereby, a stained corneal epithelial defect region was recorded. A developed photograph was stored as a digital image in a computer, and an area of the stained corneal epithelial defect part was measured using image analysis software (Image-Pro Plus).\nRegarding the corneal epithelial defect area measured at each time point, a value for each individual was calculated, assuming that its initial value was 100%, and this was adopted as a ratio of the remaining corneal epithelial defect."}},
  "data": [
    {"smiles": "Cc1cc(SCc2sc(-c3ccc(C(F)(F)F)cc3)nc2C)ccc1OCC(=O)O", "note": "[GW-501516, (2-methyl-4-(((4-methyl-2-(4-(trifluoromethyl)phenyl)-5-thiazolyl)methyl)thio)phenoxy)acetic acid]", "values": [
      {"measurement": "Cell proliferation (%)", "setting": "[1]; 10^−7 M", "result": "213.2 ± 34.0", "unit": "%"},
      {"measurement": "Cell proliferation (%)", "setting": "[1]; 10^−8 M", "result": "223.9 ± 24.1", "unit": "%"},
      {"measurement": "Cell proliferation (%)", "setting": "[2]; 10^−8 M", "result": "125.7 ± 2.3", "unit": "%"},
      {"measurement": "Cell proliferation (%)", "setting": "[2]; 10^−9 M", "result": "133.1 ± 3.7", "unit": "%"},
      {"measurement": "Cell proliferation (%)", "setting": "[3]", "result": "129.2 ± 7.5", "unit": "%"},
      {"measurement": "cell proliferation compared to the no addition group (in words)", "setting": "[4]; 10^−7 M", "result": "significantly higher than in the no addition group"},
      {"measurement": "Cell proliferation (%)", "setting": "[4]; 10^−7 M", "result": "156.1 ± 18.9", "unit": "%"},
      {"measurement": "Cell proliferation (%)", "setting": "[4]; 10^−8 M", "result": "133.3 ± 7.4", "unit": "%"},
      {"measurement": "ratio (%) of remaining corneal epithelial defect", "setting": "[5]; 0 hour (initial value)", "result": "100.0 ± 6.5", "unit": "%"},
      {"measurement": "ratio of the corneal epithelial defect compared to vehicle (in words)", "setting": "[5]; 24 hours and 38 hours after corneal epithelium scraping", "result": "significantly decreased"},
      {"measurement": "ratio (%) of remaining corneal epithelial defect", "setting": "[5]; 24 hours later, 50 μL", "result": "25.3 ± 3.1", "unit": "%"},
      {"measurement": "ratio (%) of remaining corneal epithelial defect", "setting": "[5]; 38 hours later, 50 μL", "result": "0.2 ± 0.2", "unit": "%"},
      {"measurement": "corneal epithelial defect (in words)", "setting": "[5]; after 48 hours, all individuals (vehicle group too)", "result": "disappeared in all individuals"}
    ]}
  ]
}
